Assay results published in ChEMBL document CHEMBL1201862, “PubChem BioAssay data set” (2004).
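Tested at 5 concentrations; 48 h exposure; 96-well plates; endpoints linearly interpolated, else capped at highest concentration. Here, GI50 denotes the concentration required for 50% inhibition of growth.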 The source made the active and inactive calls. Cut-off read from the data, not from the text of the source: active = GI50 up to about 1.1 µM and inactive = higher.

What was measured:
Test in all cases: NCI-60 cell line screen, 48 h
NCI-H23 = system: NCI-H23
M14 = system: M14
UACC-257 = system: UACC-257
HCC 2998 = system: HCC 2998
HCT-116 = system: HCT-116
RXF 393 = system: RXF 393
UO-31 = system: UO-31
OVCAR-8 = system: OVCAR-8
LOX IMVI = system: LOX IMVI
NCI-H226 = system: NCI-H226
SK-MEL-2 = system: SK-MEL-2
SF-268 = system: SF-268
HL-60 = system: HL-60
HT-29 = system: HT-29
SNB-75 = system: SNB-75
786-0 = system: 786-0
A498 = system: A498

Measured: GI50

CC1CCCc2c1c1ccc3c(O)cccc3c1oc2=O (configuration not stated)
inactive: NCI-H23 29.9 µM | M14 > 100 µM | UACC-257 > 100 µM | HCC 2998 > 100 µM | HCT-116 91.8 µM | RXF 393 18.8 µM | UO-31 > 100 µM | OVCAR-8 31.3 µM | LOX IMVI 95.5 µM | NCI-H226 > 100 µM | SK-MEL-2 28.9 µM | SF-268 17.3 µM | HL-60 > 100 µM | HT-29 > 100 µM | SNB-75 8.15 µM | 786-0 19.5 µM

CC1=CP(=O)(c2ccccc2)C=C(C)C1=C(Cl)Cl (configuration not stated)
inactive: NCI-H23 17.4 µM | M14 4.99 µM | HCC 2998 15 µM | HCT-116 3.2 µM | RXF 393 16.9 µM | OVCAR-8 10.9 µM | LOX IMVI 4.05 µM | NCI-H226 3.19 µM | SF-268 3.98 µM | HL-60 2.12 µM | HT-29 3.55 µM | SNB-75 4.83 µM | 786-0 4.1 µM

COc1cc2c(cc1OC)-c1c(cc(OC)c(OC)c1OC)C2=O
inactive: NCI-H23 > 100 µM | M14 > 100 µM | UACC-257 > 100 µM | HCC 2998 > 100 µM | HCT-116 > 100 µM | RXF 393 > 100 µM | UO-31 83.4 µM | OVCAR-8 > 100 µM | LOX IMVI > 100 µM | NCI-H226 > 100 µM | SF-268 > 100 µM | HL-60 98.6 µM | HT-29 > 100 µM | SNB-75 18.2 µM | 786-0 > 100 µM

CCO/S(=N/S(=O)(=O)c1ccccc1)c1ccccc1[N+](=O)[O-] (configuration not stated)
inactive: NCI-H23 > 100 µM | M14 > 100 µM | UACC-257 > 100 µM | HCC 2998 > 100 µM | UO-31 > 100 µM | OVCAR-8 > 100 µM | LOX IMVI > 100 µM | NCI-H226 > 100 µM | SK-MEL-2 > 100 µM | SF-268 > 100 µM | HT-29 > 100 µM | SNB-75 > 100 µM | 786-0 > 100 µM

N#CCc1nc2c(s1)C(=O)c1ccccc1C2=O
inactive: NCI-H23 17.5 µM | M14 15.2 µM | UACC-257 15.2 µM | HCC 2998 19.9 µM | HCT-116 14.3 µM | RXF 393 30.6 µM | UO-31 15.5 µM | OVCAR-8 10.8 µM | LOX IMVI 13.5 µM | NCI-H226 19.8 µM | SK-MEL-2 17.3 µM | SF-268 15.9 µM | A498 32.7 µM | HT-29 22.8 µM | SNB-75 23.1 µM | 786-0 16.4 µM

NC(=S)NNc1c([N+](=O)[O-])cnn(-c2ccccc2)c1=O
inactive: NCI-H23 19 µM | M14 15 µM | UACC-257 22.9 µM | HCC 2998 18.7 µM | HCT-116 10.2 µM | RXF 393 18.5 µM | UO-31 23.4 µM | OVCAR-8 14.5 µM | LOX IMVI 10.3 µM | NCI-H226 19.1 µM | SF-268 21.1 µM | HL-60 4.62 µM | HT-29 18 µM | SNB-75 19.4 µM | 786-0 20.3 µM

CC1(C)COC(C2(C)C(=O)C=C(c3ccccc3)c3ccccc32)=N1 (configuration not stated)
inactive: NCI-H23 47.1 µM | M14 46.1 µM | UACC-257 31.4 µM | HCT-116 44.1 µM | RXF 393 55.3 µM | UO-31 28.3 µM | OVCAR-8 46.8 µM | NCI-H226 52.1 µM | SK-MEL-2 37.3 µM | SF-268 58.2 µM | HL-60 27 µM | HT-29 30.5 µM | SNB-75 33.4 µM | 786-0 59.8 µM
